Source: the NIST ThermoML archive (doi:10.1021/je800889y)

Assay: excess molar enthalpy (molar enthalpy of mixing); xn = mol fraction of the nth substance listed
Settings: 101.3 kPa, Liquid, Flow calorimetry

CCOC(=O)CC(C)=O [ethyl 3-oxobutanoate] + CCC(C)O
excess molar enthalpy [kJ/mol]
Settings | 298.15 K | 313.15 K | 328.15 K | 338.15 K | 348.15 K
x1 = 0.1002 | 0.98 | 1.13 | 1.2 | 1.23 | 1.23
x1 = 0.1997 | – | 1.76 | 1.94 | 1.97 | 1.98
x1 = 0.2008 | 1.52 | – | – | – | –
x1 = 0.2998 | – | 2.16 | 2.38 | 2.44 | 2.44
x1 = 0.3009 | 1.84 | – | – | – | –
x1 = 0.3999 | – | 2.38 | 2.61 | 2.67 | 2.67
x1 = 0.4011 | 2.02 | – | – | – | –
x1 = 0.45 | – | 2.44 | 2.64 | 2.7 | 2.71
x1 = 0.4512 | 2.06 | – | – | – | –
x1 = 0.5004 | – | 2.44 | 2.63 | 2.68 | 2.69
x1 = 0.5017 | 2.08 | – | – | – | –
x1 = 0.5499 | – | 2.41 | 2.58 | 2.61 | 2.62
x1 = 0.5512 | 2.06 | – | – | – | –
x1 = 0.5995 | – | 2.32 | 2.48 | 2.5 | 2.51
x1 = 0.6009 | 2.01 | – | – | – | –
x1 = 0.6493 | – | 2.21 | 2.33 | 2.33 | 2.34
x1 = 0.6507 | 1.93 | – | – | – | –
x1 = 0.7007 | 1.8 | 2.03 | 2.12 | 2.12 | 2.12
x1 = 0.8005 | 1.42 | 1.55 | 1.59 | 1.59 | 1.6
x1 = 0.8999 | 0.805 | 0.872 | 0.882 | 0.885 | 0.889

CCOC(=O)CC(C)=O [ethyl 3-oxobutanoate] + CCCCCO
excess molar enthalpy [kJ/mol]
Settings | 298.15 K | 313.15 K | 328.15 K | 338.15 K | 348.15 K
x1 = 0.0998 | 0.913 | 1.05 | 1.12 | 1.18 | 1.18
x1 = 0.1996 | 1.38 | 1.67 | 1.85 | 1.92 | 1.93
x1 = 0.3006 | 1.71 | 2.05 | 2.3 | 2.39 | 2.39
x1 = 0.3505 | 1.81 | 2.18 | 2.46 | 2.54 | 2.54
x1 = 0.4001 | 1.88 | 2.27 | 2.54 | 2.63 | 2.64
x1 = 0.4504 | 1.93 | 2.32 | 2.6 | 2.68 | 2.69
x1 = 0.5003 | 1.95 | 2.33 | 2.6 | 2.68 | 2.69
x1 = 0.5498 | 1.94 | 2.31 | 2.56 | 2.63 | 2.64
x1 = 0.6 | 1.9 | 2.26 | 2.49 | 2.54 | 2.55
x1 = 0.6497 | 1.84 | 2.16 | 2.35 | 2.4 | 2.4
x1 = 0.7002 | 1.74 | 2.02 | 2.18 | 2.2 | 2.21
x1 = 0.7995 | 1.43 | 1.59 | 1.67 | 1.67 | 1.67
x1 = 0.9004 | 0.851 | 0.898 | 0.928 | 0.93 | 0.933

CCOC(=O)CC(C)=O [ethyl 3-oxobutanoate] + CCCCO
excess molar enthalpy [kJ/mol]
Settings | 298.15 K | 313.15 K | 328.15 K | 338.15 K | 348.15 K
x1 = 0.1003 | 0.913 | 1 | 1.12 | 1.14 | 1.16
x1 = 0.2002 | 1.41 | 1.56 | 1.81 | 1.86 | 1.9
x1 = 0.3 | 1.71 | 1.94 | 2.25 | 2.31 | 2.35
x1 = 0.3502 | 1.81 | 2.07 | 2.38 | 2.45 | 2.49
x1 = 0.3999 | 1.88 | 2.15 | 2.47 | 2.53 | 2.58
x1 = 0.45 | 1.92 | 2.22 | 2.51 | 2.58 | 2.61
x1 = 0.5005 | 1.94 | 2.22 | 2.51 | 2.56 | 2.59
x1 = 0.5501 | 1.92 | 2.19 | 2.47 | 2.51 | 2.53
x1 = 0.5999 | 1.88 | 2.12 | 2.37 | 2.42 | 2.42
x1 = 0.6499 | 1.8 | 2.02 | 2.25 | 2.27 | 2.27
x1 = 0.7 | 1.69 | 1.86 | 2.06 | 2.08 | 2.08
x1 = 0.8005 | 1.34 | 1.42 | 1.55 | 1.55 | 1.56
x1 = 0.9007 | 0.767 | 0.799 | 0.841 | 0.842 | 0.847

CCOC(=O)CC(C)=O [ethyl 3-oxobutanoate] + CCOC(C)=O
excess molar enthalpy [kJ/mol]
Settings | 298.15 K | 313.15 K | 328.15 K | 338.15 K | 348.15 K
x1 = 0.1005 | 0.025 | 0.025 | 0.021 | 0.019 | 0.017
x1 = 0.1995 | 0.041 | 0.042 | 0.035 | 0.033 | 0.029
x1 = 0.2996 | 0.052 | 0.053 | 0.044 | 0.041 | 0.036
x1 = 0.3495 | 0.054 | 0.057 | 0.047 | 0.044 | 0.039
x1 = 0.3995 | 0.056 | 0.059 | 0.048 | 0.046 | 0.041
x1 = 0.4496 | 0.057 | 0.061 | 0.049 | 0.047 | 0.042
x1 = 0.4998 | 0.056 | 0.061 | 0.048 | 0.046 | 0.042
x1 = 0.55 | 0.055 | 0.06 | 0.047 | 0.045 | 0.041
x1 = 0.6001 | 0.052 | 0.058 | 0.044 | 0.043 | 0.039
x1 = 0.6502 | 0.049 | 0.056 | 0.041 | 0.041 | 0.038
x1 = 0.7001 | 0.046 | 0.052 | 0.037 | 0.037 | 0.035
x1 = 0.7994 | 0.035 | 0.042 | 0.027 | 0.029 | 0.027
x1 = 0.9004 | 0.019 | 0.028 | 0.018 | 0.017 | 0.017

CCOC(=O)CC(C)=O [ethyl 3-oxobutanoate] + O
excess molar enthalpy [kJ/mol]
Settings | 298.15 K | 313.15 K | 328.15 K | 338.15 K | 348.15 K
x1 = 0.1502 | 0.175 | 0.276 | 0.386 | 0.472 | 0.558
x1 = 0.2994 | 0.428 | 0.597 | 0.783 | 0.929 | 1.09
x1 = 0.4491 | 0.684 | 0.92 | 1.19 | 1.4 | 1.62
x1 = 0.6014 | 0.923 | 1.23 | 1.57 | 1.82 | 1.93
x1 = 0.6499 | – | – | – | 1.79 | 1.89
x1 = 0.7001 | 1.08 | 1.4 | 1.58 | 1.7 | 1.79
x1 = 0.7514 | 1.13 | 1.32 | 1.47 | 1.56 | 1.61
x1 = 0.797 | – | – | – | 1.38 | 1.41
x1 = 0.8474 | 0.87 | 0.998 | 1.07 | – | –
x1 = 0.9034 | 0.6 | 0.696 | 0.736 | 0.778 | 0.786
x1 = 0.9496 | 0.32 | 0.385 | 0.39 | – | –
